For assay [1], the system named is INS-1 832/3 cells. Put plainly: miRNA expression profiling of GLP-1 treated INS-1 832/3 cells (SYBR green qPCR). It is filed as cell-based, rat. The following applies: 50 nM GLP-1 for 24 hours, 16 mM glucose. The procedure: Glucagon like peptide-1 (GLP-1) exerts pleiotropic effects on pancreatic β-cell function. GLP-1 potentiates glucose-dependent insulin secretion (GDIS) in pancreatic β-cells. Chronic administration of GLP-1 also promotes insulin synthesis as well as β-cell proliferation and neogenesis, at least in animal models. The detailed underlying mechanism remains to be fully understood. […] The expression levels of 250 microRNAs in INS-1 832/3 cell cultured in the presence or absence of 50 nM GLP-1 for 24 hours were compared using quantitative reverse transcription polymerase chain reaction (RT-PCR) method.
For GLP-1 treatment, GLP-1 (7-37) amide (ABCHEM) was added in the media in the presence of 16 mM glucose for 24 hours.
For microRNA profiling, total RNA was extracted from INS-1 832/3 cells with TRIZOL reagent (Invitrogen, Carlsbad, Calif.). A total of 250 miRNA species were determined by SYBR green quantitative PCR (qPCR) method at Rossetta Inpharmatics (Seattle, Wash.). Quantitative PCR is a method used to detect relative or absolute gene expression level. All qPCR involves the use of fluorescence to detect the threshold cycle (Ct) during PCR when the level of fluorescence gives signal over the background and is in the linear portion of the amplified curve. […] In this example, the Ct value data was calculated into copy number per 10 pg total RNA using the standard curve method. […]
Background: Quantitative PCR measures a nucleic acid by following its amplification.

In assay [2] the test system is INS-1 832/13 cells. The experiment in a line: glucose dependent insulin secretion (GDIS) assay in INS-1 832/13 cells. As to conditions: 16 mM glucose, two-hour incubation in KRB. The class given is cell-based, rat. From the text: (§1) We overexpressed the precursors of miR-132 and miR-212 to evaluate their possible contribution to β-cell function. MicroRNA miR-375 was included as a control as it been reported to have an inhibitory effect on GDIS (Poy et al., Nature 432: 226-230 (2004)). Chemically modified Pre-miR™ miRNA precursor molecules and Anti-miR™ miRNA inhibitors were purchased from Ambion (Foster City, Calif.). miRCURY LNA™ microRNA knockdown oligonucleotides were purchased from Exiqon (Woburn, Mass.). The oligonucleotide molecules were delivered to the cells by the Nucleofector Device (Amaxa, Gaithersburg, Md.). In brief, INS-1 cells were trypsinized, centrifuged, and resuspended in 100 μl Nucleofector solution V. Then 100-500 pmole RNA oligonucleotides were transfected to 3-million cells at the concentration of 1-5 μM with the Amaxa Nucleofector Device. Scramble controls from the vendors were used with the same transfection method. After electroporation, the cells were transferred to regular culture medium and then split into replicates in 96-well plates. Insulin secretion assay or LANCE cAMP assay were performed 48 hours post electroporation.
(§2) INS-1 cell glucose dependent insulin secretion (GDIS) assay was performed as follows. The GDIS assay was performed with cells grown to near confluency in 96-well plates. Prior to the assay, cells were washed once with PBS and pre-incubated for two hours in freshly prepared Krebs-Ringer Bicarbonate (KRB) medium without glucose. The medium were then replaced with KRB with 2, 8 or 16 mM glucose or along with 10 nM GLP-1. The cells were incubated for another two hours in a CO2 incubator. The media was then removed at the end of incubation, and assayed for insulin levels by Ultra-sensitive Rat Insulin ELISA kit (ALPCO, Salem, N.H.) or insulin immunoassay by Gyrolab workstation (GYROS AB, Uppsala, Sweden). Intracellular insulin was extracted by acid ethanol method for measuring intracellular insulin content. Total protein was measured by Pierce 660 nm Protein Assay from Pierce Biotechnology, Inc. (Rockford, Ill.).

Assay [3] deals with rat pancreatic islets. The experiment in a line: miRNA expression in isolated rat islets (TAQMAN). The class given is cell-based. The following applies: 50 nM GLP-1, 11 mM glucose, 24 hours. The procedure:
INS-1 832/3 and 832/13 cells were maintained in RPMI 1640 with 10% FBS and 11 mM glucose. For GLP-1 treatment, GLP-1 (7-37) amide (ABCHEM) was added in the media in the presence of 16 mM glucose for 24 hours. Total RNA was extracted with TRIZOL as in Example 1. Rat islet isolation and treatment was as follows. Pancreatic islets of Langerhans were isolated from the pancreas of normal Sprague-Dawley rats (Charles River, Ind.) by collagenase digestion and discontinuous Ficoll gradient separation (15). Islets were cultured for 2 hours in RPMI 1640 medium with 11 mM glucose for recovery from the isolation process. Then 100-200 islets were treated with 50 nM GLP-1 in the media with 11 mM glucose for 24 hours. RNA was extracted with TRIZOL as in Example 1 for quantification of microRNA species.
To verify that GLP-1 mediated miR-212 and miR-132 expression changes are of biological relevance, we analyzed their expression in freshly isolated rat islets treated with GLP-1. Pancreatic islets of Langerhans were isolated from the pancreas of normal Sprague-Dawley rats (Charles River, Ind.) by collagenase digestion and discontinuous Ficoll gradient separation. Islets were cultured for two hours in RPMI 1640 medium with 11 mM glucose for recovery from the isolation process. Then 100 to 200 islets were treated with 50 nM GLP-1 in the media with 11 mM glucose for 24 hours. RNA was extracted with TRIZOL reagent/ethanol precipitation followed by quantification of miRNA species. […] The regulation of miR-132 and miR-212 expression by GLP-1 was confirmed in rat pancreatic islets.

The test system of assay [4] is INS-1 832/3 cells. Put plainly: glucose dependent insulin secretion (GDIS) assay in INS-1 832/3 cells. As to conditions: 16 mM glucose, two-hour incubation in KRB. It is filed as cell-based, rat.
Source text: as §1, §2

For GLP-1 (7-37) amide, the “expression of miR-375, miR-9 and miR-124a” value in assay [1] was “no significant changes”. The “increase of insulin secretion upon treatment with GLP-1” value in assay [2] was “less than 50%”. In addition, in assay [3], the “miR-132 expression level increased” value is 2 fold; the “miR-212 expression level increased” value worked out at 2 fold; the “regulation of miR-375 and miR-217 expression” value is “Neither miR-375 nor miR-217 was significantly regulated”. Further, the “increase of insulin secretion upon treatment with GLP-1” value in assay [4] is on record as “greater than 300%”.

The values above are taken from patent US20120034608A1, “MICRORNA AS A BIOMARKER OF PANCREATIC ISLET BETA-CELL ENGAGEMENT” (Merck Sharp & Dohme Corp., priority 2009, published 2012).
